The text below walks through data of patent US20190290759A1, “COMBINATION OF HDAC INHIBITOR AND ANTI-PD-L1 ANTIBODY FOR TREATMENT OF OVARIAN CANCER” (Syndax Pharmaceuticals, Inc., priority 2015, published 2019).

For data set [1], the system named is PD-L1 on DU 145 carcinoma cells. Kind of data set: Cell-surface PD-L1 expression by flow cytometry, DU 145. Format: cell-based, human. The conditions noted are these: DU 145 (prostate), vorinostat 3 μM 5 h daily x4 days or entinostat 500 nM 72 h; for PD-L1 % Positive: DMSO controls 76.3 / 81.4; for PD-L1 MFI: DMSO controls 200 / 226. (In general: A flow cytometer gives signals particle by particle.)

For data set [2], the system named is MICA/B on DU 145 carcinoma cells. Kind of data set: Cell-surface MIC-A/B expression by flow cytometry, DU 145. Format: cell-based, human. The following applies: DU 145 (prostate); vorinostat 3 μM 5 h daily x4 days or entinostat 500 nM 72 h; DMSO controls 42.9 / 58.9.
Data set [3] has as its system HLA-ABC on DU 145 carcinoma cells. The data set can be described thus: Cell-surface HLA-ABC expression by flow cytometry, DU 145. Format: cell-based, human. The following applies: DU 145 (prostate), vorinostat 3 μM 5 h daily x4 days or entinostat 500 nM 72 h; for HLA-ABC % Positive: DMSO controls 100 / 100; for HLA-ABC MFI: DMSO controls 200 / 226.
The subject of data set [4] is PD-L1 on PC-3 carcinoma cells. The data set can be described thus: Cell-surface PD-L1 expression by flow cytometry, PC-3. Format: cell-based, human. The conditions noted are these: PC-3 (prostate), vorinostat 3 μM 5 h daily x4 days or entinostat 500 nM 72 h; for PD-L1 % Positive: DMSO controls 74.1 / 55.8; for PD-L1 MFI: DMSO controls 207 / 146.
Data set [5] relates to MICA/B on PC-3 carcinoma cells. Kind of data set: Cell-surface MIC-A/B expression by flow cytometry, PC-3. Format: cell-based, human. The conditions noted are these: PC-3 (prostate); vorinostat 3 μM 5 h daily x4 days or entinostat 500 nM 72 h; DMSO controls 33.2 / 43.7.
Data set [6] has as its system HLA-ABC on PC-3 carcinoma cells. Kind of data set: Cell-surface HLA-ABC expression by flow cytometry, PC-3. Format: cell-based, human. The following applies: PC-3 (prostate), vorinostat 3 μM 5 h daily x4 days or entinostat 500 nM 72 h; for HLA-ABC % Positive: DMSO controls 99.8 / 99.9; for HLA-ABC MFI: DMSO controls 699 / 801.
Data set [7] has as its system PD-L1 on NCI-H460 carcinoma cells. The data set can be described thus: Cell-surface PD-L1 expression by flow cytometry, NCI-H460. Format: cell-based, human. The following applies: NCI-H460 (lung), vorinostat 3 μM 5 h daily x4 days or entinostat 500 nM 72 h; for PD-L1 % Positive: DMSO controls 68.0 / 89.5; for PD-L1 MFI: DMSO controls 199 / 492.
Data set [8] concerns MICA/B on NCI-H460 carcinoma cells. Kind of data set: Cell-surface MIC-A/B expression by flow cytometry, NCI-H460. Format: cell-based, human. The following applies: NCI-H460 (lung); vorinostat 3 μM 5 h daily x4 days or entinostat 500 nM 72 h; DMSO controls 4.4 / 20.3.
The test system of data set [9] is HLA-ABC on NCI-H460 carcinoma cells. The data set can be described thus: Cell-surface HLA-ABC expression by flow cytometry, NCI-H460. Format: cell-based, human. The following applies: NCI-H460 (lung), vorinostat 3 μM 5 h daily x4 days or entinostat 500 nM 72 h; for HLA-ABC % Positive: DMSO controls 86.6 / 99.2; for HLA-ABC MFI: DMSO controls 371 / 822.
The subject of data set [10] is MICA/B on NCI-H441 carcinoma cells. The data set can be described thus: Cell-surface MIC-A/B expression by flow cytometry, NCI-H441. Format: cell-based, human. The following applies: NCI-H441 (lung); vorinostat 3 μM 5 h daily x4 days or entinostat 500 nM 72 h; DMSO controls 23.5 / 16.7.
The test system of data set [11] is HLA-ABC on NCI-H441 carcinoma cells. Kind of data set: Cell-surface HLA-ABC expression by flow cytometry, NCI-H441. The conditions noted are these: NCI-H441 (lung), vorinostat 3 μM 5 h daily x4 days or entinostat 500 nM 72 h; for HLA-ABC % Positive: DMSO controls 99.9 / 99.9; for HLA-ABC MFI: DMSO controls 1182 / 1232. Format: cell-based, human.
Data set [12] relates to PD-L1 on AsPC-1 carcinoma cells. The data set can be described thus: Cell-surface PD-L1 expression by flow cytometry, AsPC-1. Format: cell-based, human. The conditions noted are these: AsPC-1 (pancreas), vorinostat 3 μM 5 h daily x4 days or entinostat 500 nM 72 h; for PD-L1 % Positive: DMSO controls 1.4 / 1.9; for PD-L1 MFI: DMSO controls 87.5 / 91.4.
In data set [13] the test system is MICA/B on AsPC-1 carcinoma cells. The data set can be described thus: Cell-surface MIC-A/B expression by flow cytometry, AsPC-1. Format: cell-based, human. The conditions noted are these: AsPC-1 (pancreas); vorinostat 3 μM 5 h daily x4 days or entinostat 500 nM 72 h; DMSO controls 1.9 / 1.4.
Data set [14] has as its system HLA-ABC on AsPC-1 carcinoma cells. Kind of data set: Cell-surface HLA-ABC expression by flow cytometry, AsPC-1. Format: cell-based, human. The following applies: AsPC-1 (pancreas), vorinostat 3 μM 5 h daily x4 days or entinostat 500 nM 72 h; for HLA-ABC % Positive: DMSO controls 98.5 / 99.1; for HLA-ABC MFI: DMSO controls 625 / 670.
The test system of data set [15] is human lung and prostate carcinoma cells (DU 145, PC-3, NCI-H460, NCI-H441). The data set can be described thus: Avelumab-mediated ADCC, 4 h 111In release assay with NK effectors. The conditions noted are these: cells pre-exposed to vorinostat 3 μM (5 h daily x4 days) or entinostat 500 nM (72 h) vs DMSO; avelumab 2 ng/mL; NK effectors E:T=30:1. Format: cell-based. Here is the method: (§1) NK lysis was performed in the presence of avelumab or isotype control (2 ng/mL).
(§2) Results are presented as mean±S.E.M. from 3 replicate wells, and are representative of 2-4 independent experiments. […] For CD16 blocking, NK cells were pretreated for 2 h with anti-CD16 blocking antibody prior to being used as effectors. Results are presented as mean±S.E.M. from 3 replicate wells, and are representative of 2-4 independent experiments.

For data set [16], the system named is PD-L1 in lung and prostate carcinoma xenografts (NCI-H460, PC-3, DU 145). The data set can be described thus: Human xenografts, PD-L1 immunofluorescence. The following applies: vorinostat 150 mg/kg p.o. 4 daily doses, excised 24 h after last dose; entinostat 20 mg/kg p.o. single dose 72 h before excision; vs DMSO. Format: in vivo, nu/nu mice. Here is the method:
Female nu/nu mice were implanted with NCI-H460 (lung) or PC-3 (prostate) carcinoma cells. […] Frozen specimens were examined for cell-surface expression of PD-L1 by immunofluorescence using antihuman PD-L1 (clone SP142) and goat anti-rabbit AF594, and counterstained with DAPI-containing mounting medium.
Tumors were excised 24 h after the last dose. […] Frozen sections were examined for cell-surface expression of human PD-L1 by immunofluorescence. Confocal images are shown at 20× magnification and are representative of 3 animals/treatment. Relative PD-L1 expression levels were calculated using ImageJ software by normalizing the intensity values to their respective DMSO treated controls.
A general note: Xenograft models place foreign cells or tissue in a host animal.

The conditions of data set [17]: in vivo; cited from earlier work.
For data set [18], the system named is histone acetylation. The conditions noted are these: following the administration of entinostat; cited from earlier work.
Data set [19] concerns host immune suppressor cells. The following applies: preclinical models; cited from earlier work.
In data set [20] the test system is PD-L1 on NCI-H441 carcinoma cells. The data set can be described thus: Cell-surface PD-L1 expression by flow cytometry, NCI-H441. The following applies: NCI-H441 (lung); vorinostat 3 μM 5 h daily x4 days or entinostat 500 nM 72 h; DMSO controls 958 / 1031.
The test system of data set [21] is NCI-H460 lung carcinoma cells. Kind of data set: Avelumab-mediated NK lysis with CD16 blocking. Format: cell-based, human. The conditions noted are these: NK cells pretreated 2 h with anti-CD16 blocking antibody 12 μg/mL; targets exposed to vorinostat or DMSO; avelumab 2 ng/mL. Here is the method:
as §1
NK cells were pretreated for 2 h with anti-CD16 blocking antibody (12 μg/mL) prior to being used as effectors.
as §2

The subject of data set [22] is human carcinoma cell lines. The conditions noted are these: cited from earlier work.
Data set [23] concerns whole PBMCs or dendritic cells isolated from PBMCs. The conditions noted are these: cited from earlier work.
Data set [24] in a line: in vitro. The conditions noted are these: human, PC-3 prostate carcinoma cells.

Usually viability stands for the share of living cells, or the viability signal relative to a control. Read a low viability as a greater loss of cells.

As to `Nc1ccccc1NC(=O)c1ccc(CNC(=O)OCc2cccnc2)cc1` [Entinostat, N-(2-aminophenyl)-4-[N-(pyridine-3-yl)methoxycarbonylamino-methyl]-benzamide], the “PD-L1 % Positive” value in data set [1] was found to be 99.5%; in data set [4], 86.4%; in data set [7], 90.2%; in [12], 9.9%. In addition, the “PD-L1 MFI” value was 705 in data set [1]; 240 in data set [4]; 507 in data set [7]; 126 in data set [12]; 1027 in [20]. For the same compound, the “MIC-A/B % Positive” value is recorded as 94.3% in data set [2]; 91.5% in [5]; 69.8% in [8]; 46.2% in data set [10]; 6.5% in data set [13]. For the same compound, the “HLA-ABC % Positive” value in data set [3] turned out to be 100%; in data set [6], 100%; in data set [9] it was 94.3%; in data set [11] it was 99.9%; in data set [14], 99.0%. The “HLA-ABC MFI” value in data set [3] was determined as 705; in data set [6] it was 1144; in [9], 547; in data set [11], 1375; in [14], 126. In addition, the “Sensitivity of carcinoma cells to ADCC mediated by avelumab (NK-cell lysis)” value in data set [15] was “significantly increased sensitivity”. The “PD-L1 expression in vivo in xenografts (immunofluorescence)” value in data set [16] is given as “enhance PD-L1 expression”. In data set [17], the half-life result is “about 100 hours”. Moreover, in [18], the “persistence of changes in histone acetylation” value was “persist for several weeks”. In data set [19], the “effect on host immune suppressor cells” value is “reduce the number of, and inhibit the function of, host immune suppressor cells”.
“avelumab: fully human anti-PD-L1 IgG1 antibody”: in data set [21], the “Avelumab-mediated lysis of carcinoma cells after CD16 neutralization” value is recorded as “decreased by CD16 neutralization”. For the same compound, the “human carcinoma cell lines in which ADCC was induced” value in data set [22] (PBMCs as effectors) was 8 out of 18. In [22] (tumor cell lines pretreated with IFN-γ), the “cell lines with augmented lysis after IFN-γ pretreatment” value is reported as 4 out of 10. For the same compound, in [23], the “lysis of PBMCs or dendritic cells in NK-mediated ADCC assays” value was “Little or no lysis”.
Turning to `O=C(CCCCCCC(=O)Nc1ccccc1)NO` [Vorinostat], the “PD-L1 % Positive” value in data set [1] is listed as 96.0%; in [4] it was 83.3%; in [7], 86.9%; in data set [12], 1.4%. For the same compound, the “PD-L1 MFI” value is 354 in [1]; 251 in data set [4]; 278 in data set [7]; 90.4 in [12]; 1053 in [20]. Also, the “MIC-A/B % Positive” value in data set [2] came out at 93.9%; in data set [5], 58.1%; in data set [8], 70.6%; in [10], 21.1%; in data set [13] it was 0.8%. In addition, the “HLA-ABC % Positive” value in [3] came to 100%; in data set [6], 99.7%; in data set [9] it was 97.1%; in data set [11], 99.9%; in data set [14], 99.2%. For the same compound, the “HLA-ABC MFI” value is given as 354 in data set [3]; 816 in data set [6]; 608 in data set [9]; 1284 in [11]; 806 in data set [14]. Moreover, the “PD-L1 expression in vivo in xenografts (immunofluorescence)” value in data set [16] is given as “enhance PD-L1 expression”. For the same compound, the viability in data set [24] stood at 99%.
